From US8987195B2 (priority 2012, dated 2015)
Like-named read-outs stand apart in the source and are kept apart here.

Columns and labels:
HCV genotype 1b replicon = test: HCV replicon assay, genotype 1b replicon EC50; format: cell-based, Hepatitis C virus; conditions: genotype 1b replicon, read-out: EC50 [gt-1b]
Procedure, shortened: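 Cells harbouring a stable replicon are grown under G418 selection, then plated with test compound in G418-free medium for 24-48 hours. After washing and lysis, RNA or luciferase signal is measured and expressed as percent of DMSO control to give EC50.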

[1] = target: HCV NS3/4A protease genotype 1b (Hepatitis C virus genotype 1b, UniProt P26663); test: HCV NS3/4A protease time-resolved fluorescence (TRF) assay, Ki against genotype 1b; format: biochemical; conditions: IC50 [gt-1b] (nM), NS3/4A genotype 1b, enzyme 0.2 nM
Chain of HCV NS3/4A protease genotype 1b (P26663 1027-1657): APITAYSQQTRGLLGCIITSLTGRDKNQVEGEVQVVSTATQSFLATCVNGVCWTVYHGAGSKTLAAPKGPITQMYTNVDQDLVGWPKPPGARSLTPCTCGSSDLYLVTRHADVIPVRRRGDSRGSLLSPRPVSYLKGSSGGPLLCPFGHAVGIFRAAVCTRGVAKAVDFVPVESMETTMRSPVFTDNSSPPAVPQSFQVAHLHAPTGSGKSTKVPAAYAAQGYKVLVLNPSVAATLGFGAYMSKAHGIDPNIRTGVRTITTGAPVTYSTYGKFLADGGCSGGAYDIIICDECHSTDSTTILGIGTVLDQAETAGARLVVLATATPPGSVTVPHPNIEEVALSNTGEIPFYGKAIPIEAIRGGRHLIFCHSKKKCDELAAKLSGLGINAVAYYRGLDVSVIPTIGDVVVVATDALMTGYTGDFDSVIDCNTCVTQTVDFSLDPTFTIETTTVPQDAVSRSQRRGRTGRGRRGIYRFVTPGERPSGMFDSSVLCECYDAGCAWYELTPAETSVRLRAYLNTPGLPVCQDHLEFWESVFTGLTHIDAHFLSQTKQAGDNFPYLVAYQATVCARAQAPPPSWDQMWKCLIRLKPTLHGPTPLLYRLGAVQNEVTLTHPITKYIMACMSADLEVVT
Chain of HCV NS3/4A protease genotype 1b (P26663 1658-1711): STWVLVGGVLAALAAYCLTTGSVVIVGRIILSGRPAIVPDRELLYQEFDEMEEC
Procedure, shortened: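 Ki values come from IC50 fits corrected for substrate concentration and KM. The time-resolved fluorescence protease reaction used 25 nM peptide substrate, 2.5 h, room temperature, pH 7.5 HEPES buffer, after 30 min enzyme–inhibitor preincubation.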

For `CCc1ccc2nc(C)c3c(c2c1)CC[C@]1(C[C@H]2C(=O)N[C@]4(C(=O)NS(=O)(=O)C5(C)CC5)C[C@H]4/C=C\CCCCC[C@H](NC(=O)OC(C)(C)C(F)(F)F)C(=O)N2C1)O3` [Example 314, 1,1,1-trifluoro-2-methylpropan-2-yl [(2R,6S,12Z,13aS,14aR,16aS)-9′-ethyl-5′-methyl-14a-{[(1-methylcyclopropyl)sulfonyl]carbamoyl}-5,16-dioxo-1,1′,2′,5,6,7,8,9,10,11,13a,14,14a,15,16,16a-hexadecahydrospiro[cyclopropa[e]pyrrolo[1,2-a][1,4]diazacyclopentadecine-2,3′-pyrano[2,3-c]quinolin]-6-yl]carbamate], which EC50 (HCV genotype 1b replicon; Hepatitis C virus) is on record?
Its EC50 is 8.74 nM.

What about the IC50 [1] of the same compound?
Its IC50 is 0.013 nM.

Which results are given for `CC(C)OC(=O)N[C@H]1CCCCC/C=C\[C@@H]2C[C@@]2(C(=O)NS(=O)(=O)C2(C)CC2)NC(=O)[C@@H]2C[C@]3(CCc4c(c(C(F)F)nc5ccccc45)O3)CN2C1=O` [Example 317, propan-2-yl [(2R,6S,12Z,13aS,14aR,16aS)-5′-(difluoromethyl)-14a-{[(1-methylcyclopropyl)sulfonyl]carbamoyl}-5,16-dioxo-1,1′,2′,5,6,7,8,9,10,11,13a,14,14a,15,16,16a-hexadecahydrospiro[cyclopropa[e]pyrrolo[1,2-a][1,4]diazacyclopentadecine-2,3′-pyrano[2,3-c]quinolin]-6-yl]carbamate]?
EC50 (HCV genotype 1b replicon; Hepatitis C virus): 3.25 nM; IC50 [1]: 0.023 nM

Which EC50 (HCV genotype 1b replicon; Hepatitis C virus) does the source give for `COc1ccc2nc(C)c3c(c2n1)CC[C@]1(C[C@H]2C(=O)N[C@]4(C(=O)NS(=O)(=O)C5(C)CC5)C[C@H]4/C=C\CCCCC[C@H](NC(=O)OC(C)(C)C(F)(F)F)C(=O)N2C1)O3` [Example 318, 1,1,1-trifluoro-2-methylpropan-2-yl [(2R,6S,12Z,13aS,14aR,16aS)-2′-methoxy-6′-methyl-14a-{[(1-methylcyclopropyl)sulfonyl]carbamoyl}-5,16-dioxo-1,5,6,7,8,9,9′,10,10′,11,13a,14,14a,15,16,16a-hexadecahydrospiro[cyclopropa[e]pyrrolo[1,2-a][1,4]diazacyclopentadecine-2,8′-pyrano[2,3-c][1,5]naphthyridin]-6-yl]carbamate] here?
Its EC50 is 4.99 nM.

And the IC50 [1]?
Its IC50 is 0.013 nM.

Which results are given for `Cc1nc2ccc(C(F)(F)F)cc2c2c1O[C@]1(CC2)C[C@H]2C(=O)N[C@]3(C(=O)NS(=O)(=O)C4(C)CC4)C[C@H]3/C=C\CCCCC[C@H](NC(=O)OC(C)(C)C(F)(F)F)C(=O)N2C1` [Example 319, 1,1,1-trifluoro-2-methylpropan-2-yl [(2R,6S,12Z,13aS,14aR,16aS)-5′-methyl-14a-{[(1-methylcyclopropyl)sulfonyl]carbamoyl}-5,16-dioxo-9′-(trifluoromethyl)-1,1′,2′,5,6,7,8,9,10,11,13a,14,14a,15,16,16a-hexadecahydrospiro[cyclopropa[e]pyrrolo[1,2-a][1,4]diazacyclopentadecine-2,3′-pyrano[2,3-c]quinolin]-6-yl]carbamate]?
EC50 (HCV genotype 1b replicon; Hepatitis C virus, K+ salt): 17.8 nM; IC50 ([1]; K+ salt): 0.044 nM

With `Cc1nc2ccccc2c2c1O[C@]1(CC2)C[C@H]2C(=O)N[C@]3(C(=O)NS(=O)(=O)C4(C)CC4)C[C@H]3/C=C\CCCCC[C@H](NC(=O)OC3CC(F)(F)C3(F)F)C(=O)N2C1` (stereo partly drawn) [Example 320, 2,2,3,3-tetrafluorocyclobutyl [(2R,6S,12Z,13aS,14aR,16aS)-5′-methyl-14a-{[(1-methylcyclopropyl)sulfonyl]carbamoyl}-5,16-dioxo-1,1′,2′,5,6,7,8,9,10,11,13a,14,14a,15,16,16a-hexadecahydrospiro[cyclopropa[e]pyrrolo[1,2-a][1,4]diazacyclopentadecine-2,3′-pyrano[2,3-c]quinolin]-6-yl]carbamate] as the compound, how does the EC50 (HCV genotype 1b replicon; Hepatitis C virus) read?
Its EC50 is 4.44 nM.

What about the IC50 [1] of the same compound?
The IC50 was 0.013 nM.

`Cc1nc2ccccc2c2c1O[C@]1(CC2)C[C@H]2C(=O)N[C@]3(C(=O)NS(=O)(=O)C4(C)CC4)C[C@H]3/C=C\CCCCC[C@H](NC(=O)OC3CC(F)(F)C3(F)F)C(=O)N2C1` (stereo partly drawn) [Example 321, 2,2,3,3-tetrafluorocyclobutyl [(2R,6S,12Z,13aS,14aR,16aS)-5′-methyl-14a-{[(1-methylcyclopropyl)sulfonyl]carbamoyl}-5,16-dioxo-1,1′,2′,5,6,7,8,9,10,11,13a,14,14a,15,16,16a-hexadecahydrospiro[cyclopropa[e]pyrrolo[1,2-a][1,4]diazacyclopentadecine-2,3′-pyrano[2,3-c]quinolin]-6-yl]carbamate] was tested. Which EC50 (HCV genotype 1b replicon) did it give?
Its EC50 is 7.16 nM.

And the IC50 [1]?
The IC50 was 0.03 nM.

How did the EC50 (HCV genotype 1b replicon; Hepatitis C virus) turn out when `CC(C)(OC(=O)N[C@H]1CCCCC/C=C\[C@@H]2C[C@@]2(C(=O)NS(=O)(=O)C2(C)CC2)NC(=O)[C@@H]2C[C@]3(CCc4c(c(C5CC5)nc5ccc6c(c45)OCO6)O3)CN2C1=O)C(F)(F)F` [Example 322, 1,1,1-trifluoro-2-methylpropan-2-yl [(2R,6S,12Z,13aS,14aR,16aS)-7′-cyclopropyl-14a-{[(1-methylcyclopropyl)sulfonyl]carbamoyl}-5,16-dioxo-1,5,6,7,8,9,10,10′,11,11′,13a,14,14a,15,16,16a-hexadecahydrospiro[cyclopropa[e]pyrrolo[1,2-a][1,4]diazacyclopentadecine-2,9′-[1,3]dioxolo[4,5-f]pyrano[2,3-c]quinolin]-6-yl]carbamate] was run?
The EC50 was 6.92 nM.

And the IC50 [1]?
Its IC50 is 0.073 nM.

With `CC1(S(=O)(=O)NC(=O)[C@@]23C[C@H]2/C=C\CCCCC[C@H](NC(=O)OC2CCCC2)C(=O)N2C[C@@]4(CCc5c(c(C6CC6)nc6ccc7c(c56)OCO7)O4)C[C@H]2C(=O)N3)CC1` [Example 323, cyclopentyl [(2R,6S,12Z,13aS,14aR,16aS)-7′-cyclopropyl-14a-{[(1-methylcyclopropyl)sulfonyl]carbamoyl}-5,16-dioxo-1,5,6,7,8,9,10,10′,11,11′,13a,14,14a,15,16,16a-hexadecahydrospiro[cyclopropa[e]pyrrolo[1,2-a][1,4]diazacyclopentadecine-2,9′-[1,3]dioxolo[4,5-f]pyrano[2,3-c]quinolin]-6-yl]carbamate] as the compound, how does the EC50 (HCV genotype 1b replicon; Hepatitis C virus) read?
The EC50 was 11.4 nM.

And the IC50 [1]?
Its IC50 is 0.012 nM.

How did the EC50 (HCV genotype 1b replicon; Hepatitis C virus) turn out when `CC(C)(C)COC(=O)N[C@H]1CCCCC/C=C\[C@@H]2C[C@@]2(C(=O)NS(=O)(=O)C2(C)CC2)NC(=O)[C@@H]2C[C@]3(CCc4c(c(C5CC5)nc5ccc6c(c45)OCO6)O3)CN2C1=O` [Example 324, 2,2-dimethylpropyl [(2R,6S,12Z,13aS,14aR,16aS)-7′-cyclopropyl-14a-{[(1-methylcyclopropyl)sulfonyl]carbamoyl}-5,16-dioxo-1,5,6,7,8,9,10,10′,11,11′,13a,14,14a,15,16,16a-hexadecahydrospiro[cyclopropa[e]pyrrolo[1,2-a][1,4]diazacyclopentadecine-2,9′-[1,3]dioxolo[4,5-f]pyrano[2,3-c]quinolin]-6-yl]carbamate] was run?
Its EC50 is 3.62 nM.

And the IC50 [1]?
Its IC50 is 0.022 nM.

Which results are given for `CCCOC(=O)N[C@H]1CCCCC/C=C\[C@@H]2C[C@@]2(C(=O)NS(=O)(=O)C2(C)CC2)NC(=O)[C@@H]2C[C@]3(CCc4c(c(C(F)F)nc5ccccc45)O3)CN2C1=O` [Example 325, propyl [(2R,6S,12Z,13aS,14aR,16aS)-5′-(difluoromethyl)-14a-{[(1-methylcyclopropyl)sulfonyl]carbamoyl}-5,16-dioxo-1,1′,2′,5,6,7,8,9,10,11,13a,14,14a,15,16,16a-hexadecahydrospiro[cyclopropa[e]pyrrolo[1,2-a][1,4]diazacyclopentadecine-2,3′-pyrano[2,3-c]quinolin]-6-yl]carbamate]?
EC50 (HCV genotype 1b replicon; Hepatitis C virus): 3.23 nM; IC50 [1]: 0.013 nM

Which results are given for `Cc1nc2ccccc2c2c1O[C@]1(CC2)C[C@H]2C(=O)N[C@]3(C(=O)NS(=O)(=O)C4(C)CC4)C[C@H]3/C=C\CCCCC[C@H](NC(=O)OC3(C(F)(F)F)CCCC3)C(=O)N2C1` [Example 326, 1-(trifluoromethyl)cyclopentyl [(2R,6S,12Z,13aS,14aR,16aS)-5′-methyl-14a-{[(1-methylcyclopropyl)sulfonyl]carbamoyl}-5,16-dioxo-1,1′,2′,5,6,7,8,9,10,11,13a,14,14a,15,16,16a-hexadecahydrospiro[cyclopropa[e]pyrrolo[1,2-a][1,4]diazacyclopentadecine-2,3′-pyrano[2,3-c]quinolin]-6-yl]carbamate]?
EC50 (HCV genotype 1b replicon; Hepatitis C virus): 1.11 nM; IC50 [1]: 0.023 nM

Which EC50 (HCV genotype 1b replicon; Hepatitis C virus, K+ salt) does the source give for `Cc1nc2cc(F)ccc2c2c1O[C@]1(CC2)C[C@H]2C(=O)N[C@]3(C(=O)NS(=O)(=O)C4(C)CC4)C[C@H]3/C=C\CCCCC[C@H](NC(=O)OC3CCCC3)C(=O)N2C1` [Example 327, cyclopentyl [(2R,6S,12Z,13aS,14aR,16aS)-8′-fluoro-5′-methyl-14a-{[(1-methylcyclopropyl)sulfonyl]carbamoyl}-5,16-dioxo-1,1′,2′,5,6,7,8,9,10,11,13a,14,14a,15,16,16a-hexadecahydrospiro[cyclopropa[e]pyrrolo[1,2-a][1,4]diazacyclopentadecine-2,3′-pyrano[2,3-c]quinolin]-6-yl]carbamate] here?
Its EC50 is 3.61 nM.

And the IC50 ([1]; K+ salt)?
Its IC50 is 0.026 nM.

Which results are given for `Cc1nc2cc(F)ccc2c2c1O[C@]1(CC2)C[C@H]2C(=O)N[C@]3(C(=O)NS(=O)(=O)C4(C)CC4)C[C@H]3/C=C\CCCCC[C@H](NC(=O)OC(C)(C)C(F)(F)F)C(=O)N2C1` [Example 328, 1,1,1-trifluoro-2-methylpropan-2-yl [(2R, 6S,12Z,13aS,14aR,16aS)-8′-fluoro-5′-methyl-14a-{[(1-methylcyclopropyl)sulfonyl]carbamoyl}-5,16-dioxo-1,1′,2′,5,6,7,8,9,10,11,13a,14,14a,15,16,16a-hexadecahydrospiro[cyclopropa[e]pyrrolo[1,2-a][1,4]diazacyclopentadecine-2,3′-pyrano[2,3-c]quinolin]-6-yl]carbamate]?
EC50 (HCV genotype 1b replicon; Hepatitis C virus, K+ salt): 47 nM; IC50 ([1]; K+ salt): 0.348 nM
